From patent publication US20230338391A1, “TREATMENT FOR DEPRESSION” (TAKEDA PHARMACEUTICAL COMPANY LIMITED, priority 2020, published 2023)
Like-named read-outs stand apart in the source and are kept apart here.

Test: Phase 1 SRD/multiple-rising dose (MRD, Part 2) plasma PK in healthy subjects
Format: in vivo, human
Settings: for Vd/F: read-out: Vz/F
Protocol: The study was designed to assess the safety, tolerability, PK, and PD of COMPOUND A. A total of 88 subjects were enrolled in 6 SRD and 5 SRD/MRD cohorts (n=8 per cohort). The study was composed of 2 parts.
In Part 2 of the study (SRD/MRD cohorts), a single oral tablet dose of COMPOUND A (0.3, 1, 3, 6, or 9 mg) or matching placebo was administered on Day 1 followed by safety, tolerability, PK, and PD assessments. Study drug (at the same dose level) was then administered once daily (QD) for 13 days, on […]. Each cohort of 8 subjects (6 active: 2 placebo) were administered study drug sequentially to ensure adequate safety and tolerability before administering the next dose level. Neither sentinel nor staggered dosing was used for the SRD/MRD cohorts. Subjects were confined in the study unit for 21 days, from Check-in on Day −1 until 72 hours after the last dose of study drug.
For all cohorts in Parts 1 and 2, serial PK blood samples were collected pre- and post-dose on Day 1 to measure plasma concentrations of COMPOUND A and its metabolites. For all SRD/MRD cohorts in Part 2, urine samples were collected pre- and post-dose on Day 1 and post-dose on Day 18 to measure concentrations of COMPOUND A and its metabolites.
For Part 1 of the study, all 36 subjects who received COMPOUND A were included in the PK set. For Part 2 of the study, all 30 subjects who received COMPOUND A were included in the PK set.
Referring now to FIG. 3, mean plasma concentration-time profiles (linear and semilog scales) of COMPOUND A were determined on Day 18 following oral administration of COMPOUND A QD for 13 days.

[1] = 0.3 mg QD cohort, Study Day 1, mean
[2] = 1 mg QD cohort, Study Day 1, mean
[3] = 3 mg QD cohort, Study Day 1, mean
[4] = 6 mg QD cohort, Study Day 1, mean
[5] = 9 mg QD cohort, Study Day 1, mean
[6] = both sexes, human, plasma, oral, 0.3 mg QD cohort, Study Day 1, mean
[7] = both sexes, human, plasma, oral, 1 mg QD cohort, Study Day 1, mean
[8] = both sexes, human, plasma, oral, 3 mg QD cohort, Study Day 1, mean
[9] = both sexes, human, plasma, oral, 6 mg QD cohort, Study Day 1, mean
[10] = both sexes, human, plasma, oral, 9 mg QD cohort, Study Day 1, mean

For `CC1=CN2CCS(=O)(=O)N=C2C(c2ccc(OC3CCCCC3)cc2)=N1` [COMPOUND A, 9-[4-(Cyclohexyloxy)phenyl]-7-methyl-3,4-dihydropyrazino[2,1-c][1,2,4]thiadiazine 2,2-dioxide], the CL/F [1] was 2.38 L/h, the t1/2z [1] was 37.1 h and the “Cav, ss” value (0.3 mg QD, Study Day 18, mean) was 6.27 ng/mL. For the same compound, the CL/F [2] was 2.35 L/h, the t1/2z [2] was 42.4 h and the “Cav, ss” value (1 mg QD, Study Day 18, mean) was 20.9 ng/mL. For the same compound, the CL/F [3] was 1.81 L/h, the t1/2z [3] was 52.6 h and the “Cav, ss” value (3 mg QD, Study Day 18, mean) was 81.1 ng/mL. For the same compound, the CL/F [4] was 3.25 L/h, the t1/2z [4] was 36.0 h and the “Cav, ss” value (6 mg QD, Study Day 18, mean, n = 5) was 122 ng/mL. The CL/F [5] was 2.17 L/h, the t1/2z [5] was 49.9 h and the “Cav, ss” value (9 mg QD, Study Day 18, mean) was 192 ng/mL. It also gave an AUC (both sexes, human, plasma, oral, 0.3 mg, 0.3 mg QD cohort, Study Day 1, mean, read-out: AUC24) of 48 ng·h/mL, a Cmax (both sexes, human, plasma, oral, 0.3 mg, 0.3 mg QD cohort, Study Day 1, mean, read-out: Cmax) of 2.93 ng/mL and a Tmax (both sexes, human, plasma, oral, 0.3 mg, 0.3 mg QD cohort, Study Day 1, median, read-out: tmax) of 1.25 h. For the same compound, the AUC (both sexes, human, plasma, oral, 0.3 mg, 0.3 mg QD, Study Day 6, mean, read-out: AUC24) was 51.8 ng·h/mL, the Cmax (both sexes, human, plasma, oral, 0.3 mg, 0.3 mg QD, Study Day 6, mean, read-out: Cmax) was 3.07 ng/mL and the Tmax (both sexes, human, plasma, oral, 0.3 mg, 0.3 mg QD, Study Day 6, median, read-out: tmax) was 1.5 h. It also gave an AUC (both sexes, human, plasma, oral, 0.3 mg, 0.3 mg QD, Study Day 18, mean, read-out: AUCτ) of 151 ng·h/mL, a Cmax (both sexes, human, plasma, oral, 0.3 mg, 0.3 mg QD, Study Day 18, mean, read-out: Cmax, ss) of 7.87 ng/mL and a Tmax (both sexes, human, plasma, oral, 0.3 mg, 0.3 mg QD, Study Day 18, median, read-out: tmax) of 2.5 h. The AUC (both sexes, human, plasma, oral, 1 mg, 1 mg QD cohort, Study Day 1, mean, read-out: AUC24) was 138 ng·h/mL, the Cmax (both sexes, human, plasma, oral, 1 mg, 1 mg QD cohort, Study Day 1, mean, read-out: Cmax) was 7.82 ng/mL and the Tmax (both sexes, human, plasma, oral, 1 mg, 1 mg QD cohort, Study Day 1, median, read-out: tmax) was 4 h. The AUC (both sexes, human, plasma, oral, 1 mg, 1 mg QD, Study Day 6, mean, read-out: AUC24) was 162 ng·h/mL, the Cmax (both sexes, human, plasma, oral, 1 mg, 1 mg QD, Study Day 6, mean, read-out: Cmax) was 10 ng/mL and the Tmax (both sexes, human, plasma, oral, 1 mg, 1 mg QD, Study Day 6, median, read-out: tmax) was 1 h. The AUC (both sexes, human, plasma, oral, 1 mg, 1 mg QD, Study Day 18, mean, read-out: AUCτ) was 503 ng·h/mL, the Cmax (both sexes, human, plasma, oral, 1 mg, 1 mg QD, Study Day 18, mean, read-out: Cmax, ss) was 24.9 ng/mL and the Tmax (both sexes, human, plasma, oral, 1 mg, 1 mg QD, Study Day 18, median, read-out: tmax) was 4.5 h. For the same compound, the AUC (both sexes, human, plasma, oral, 3 mg, 3 mg QD cohort, Study Day 1, mean, read-out: AUC24) was 480 ng·h/mL, the Cmax (both sexes, human, plasma, oral, 3 mg, 3 mg QD cohort, Study Day 1, mean, read-out: Cmax) was 28.7 ng/mL and the Tmax (both sexes, human, plasma, oral, 3 mg, 3 mg QD cohort, Study Day 1, median, read-out: tmax) was 1.5 h. For the same compound, the AUC (both sexes, human, plasma, oral, 3 mg, 3 mg QD, Study Day 6, mean, read-out: AUC24) was 594 ng·h/mL, the Cmax (both sexes, human, plasma, oral, 3 mg, 3 mg QD, Study Day 6, mean, read-out: Cmax) was 34.7 ng/mL and the Tmax (both sexes, human, plasma, oral, 3 mg, 3 mg QD, Study Day 6, median, read-out: tmax) was 1.54 h. It also gave an AUC (both sexes, human, plasma, oral, 3 mg, 3 mg QD, Study Day 18, mean, read-out: AUCτ) of 1950 ng·h/mL, a Cmax (both sexes, human, plasma, oral, 3 mg, 3 mg QD, Study Day 18, mean, read-out: Cmax, ss) of 100 ng/mL and a Tmax (both sexes, human, plasma, oral, 3 mg, 3 mg QD, Study Day 18, median, read-out: tmax) of 4 h. The AUC (both sexes, human, plasma, oral, 6 mg, 6 mg QD cohort, Study Day 1, mean, read-out: AUC24) was 767 ng·h/mL, the Cmax (both sexes, human, plasma, oral, 6 mg, 6 mg QD cohort, Study Day 1, mean, read-out: Cmax) was 42 ng/mL and the Tmax (both sexes, human, plasma, oral, 6 mg, 6 mg QD cohort, Study Day 1, median, read-out: tmax) was 5 h. It also gave an AUC (both sexes, human, plasma, oral, 6 mg, 6 mg QD, Study Day 6, mean, n = 5, read-out: AUC24) of 784 ng·h/mL, a Cmax (both sexes, human, plasma, oral, 6 mg, 6 mg QD, Study Day 6, mean, read-out: Cmax) of 50.2 ng/mL and a Tmax (both sexes, human, plasma, oral, 6 mg, 6 mg QD, Study Day 6, median, read-out: tmax) of 5 h. The AUC (both sexes, human, plasma, oral, 6 mg, 6 mg QD, Study Day 18, mean, n = 5, read-out: AUCτ) was 2930 ng·h/mL, the Cmax (both sexes, human, plasma, oral, 6 mg, 6 mg QD, Study Day 18, mean, n = 5, read-out: Cmax, ss) was 148 ng/mL and the Tmax (both sexes, human, plasma, oral, 6 mg, 6 mg QD, Study Day 18, median, n = 5, read-out: tmax) was 3.05 h. For the same compound, the AUC (both sexes, human, plasma, oral, 9 mg, 9 mg QD cohort, Study Day 1, mean, read-out: AUC24) was 1410 ng·h/mL, the Cmax (both sexes, human, plasma, oral, 9 mg, 9 mg QD cohort, Study Day 1, mean, read-out: Cmax) was 78.4 ng/mL and the Tmax (both sexes, human, plasma, oral, 9 mg, 9 mg QD cohort, Study Day 1, median, read-out: tmax) was 4.51 h. For the same compound, the AUC (both sexes, human, plasma, oral, 9 mg, 9 mg QD, Study Day 6, mean, read-out: AUC24) was 1570 ng·h/mL, the Cmax (both sexes, human, plasma, oral, 9 mg, 9 mg QD, Study Day 6, mean, read-out: Cmax) was 82 ng/mL and the Tmax (both sexes, human, plasma, oral, 9 mg, 9 mg QD, Study Day 6, median, read-out: tmax) was 4 h. The AUC (both sexes, human, plasma, oral, 9 mg, 9 mg QD, Study Day 18, mean, read-out: AUCτ) was 4600 ng·h/mL, the Cmax (both sexes, human, plasma, oral, 9 mg, 9 mg QD, Study Day 18, mean, read-out: Cmax, ss) was 243 ng/mL and the Tmax (both sexes, human, plasma, oral, 9 mg, 9 mg QD, Study Day 18, median, read-out: tmax) was 3 h. For the same compound, the AUC (both sexes, human, plasma, oral, Day 18, range over the 0.3 to 9 mg QD dose range, read-out: mean AUCτ) was 151 to 4600 ng·h/mL, the concentration at 18 day (both sexes, human, plasma, oral, Day 18, range over the 0.3 to 9 mg QD dose range, read-out: mean Cav,ss) was 6.27 to 192 ng/mL and the Cmax (both sexes, human, plasma, oral, Day 18, range over the 0.3 to 9 mg QD dose range, read-out: mean plasma Cmax,ss) was 7.86 to 243 ng/mL. For the same compound, the AUC(0-inf) [6] was 133 ng·h/mL, the AUC(0-t) [6] was 118 ng·h/mL and the Vd/F [6] was 121 L. The AUC(0-inf) [7] was 470 ng·h/mL, the AUC(0-t) [7] was 394 ng·h/mL and the Vd/F [7] was 133 L. It also gave an AUC(0-inf) [8] of 1870 ng·h/mL, an AUC(0-t) [8] of 1470 ng·h/mL and a Vd/F [8] of 126 L. The AUC(0-inf) [9] was 2330 ng·h/mL, the AUC(0-t) [9] was 1960 ng·h/mL and the Vd/F [9] was 145 L. The AUC(0-inf) [10] was 5760 ng·h/mL, the AUC(0-t) [10] was 4430 ng·h/mL and the Vd/F [10] was 119 L. For the same compound, the Tmax (both sexes, human, plasma, po, 9 mg, oral QD 0.3, 1, 3, 6, 9 mg, range over the dose range, read-out: median tmax) was 2.5 to 4 h and the attainment of steady-state (oral QD 0.3-9 mg from Day 6) was “appeared to reach steady-state on Day 18”.
